Measured values from PubChem BioAssay AID489024 (Sanford-Burnham Center for Chemical Genomics, 2010).
Calls of active or inactive are those of the source.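 Rule for the calls: active = compounds whose mean EC50, the dose giving half the maximal reporter activation, is at or below a set limit; inactive = the rest.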

Molecular target: CHO-CHOP luciferase reporter, UPR activation, luminescence
Assay: CHOP reporter induction, apoptotic UPR branch – CHO-CHOP cells, luciferase luminescence, confirmation (AID 489024);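 note: compounds added alone to reporter cells with no tunicamycin stress co-treatment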

| Compound | EC50 |
| --- | --- |
| CCc1cc(C(=O)c2ccc(C)cc2)c(NC(=O)CCl)s1 | 13.5 µM |
| S=C1SCN(CC2CC2)CN1CC1CC1 | inactive |
| O=C(Nc1cccc(S(=O)(=O)N2CCCCC2)c1)c1ccc([N+](=O)[O-])o1 | 5.08 µM |
| Oc1c(Cl)cc(CN2CCOCC2)c2cccnc12 | 5.93 µM |
| COC(=O)c1cc(=O)n(CCc2ccc(OC)c(OC)c2)c(=Nc2ccc(F)c(Cl)c2)s1 | 16.9 µM |
| CCCCCCCCCn1c2c(c(=N)c3c1CCC3)CCCC2 | 11.3 µM |
| CCCCC1CCC(C(=O)N(CCCC)c2c(N)n(CCCC)c(=O)[nH]c2=O)CC1 (stereo not drawn) | > 80 µM (inactive) |
| CC(C)(C)N1CSC(=S)N(Cc2ccccc2)C1 | 10.2 µM |
| COc1ccc(CCn2c(C)cc(C(=O)CCl)c2C)cc1OC | > 80 µM (inactive) |
| Cc1nc(NC(=O)/C=C/c2ccccc2)n[nH]1 | > 80 µM (inactive) |
| O=C(Cn1ncc(Cl)c(Cl)c1=O)c1ccc2c(c1)OCCO2 | 13.4 µM |
| CC1(C)C=Cc2c(c3c(c4c(=O)c(-c5ccc(O)cc5)coc24)OC(C)(C)CC3)O1 | 14.5 µM |
| CCOC(=O)c1c(NC(C)=O)sc2c1CCC(C=O)=C2Sc1ccccc1 | 7.12 µM |
| CCc1nnc(NC(=O)c2nc(S(=O)(=O)Cc3ccc(C)cc3)ncc2Cl)s1 | > 80 µM (inactive) |
| Cc1cc(C(=O)CCl)c(C)n1-c1cccc(S(=O)(=O)N2CCOCC2)c1 | 7.44 µM |
| Cc1cc(C(=O)CCl)c(C)n1CCc1ccccc1 | 7.91 µM |
| CC(C)(C)C(=O)N1CCN(c2ccc(NC(=O)c3ccc([N+](=O)[O-])o3)cc2)CC1 | 0.75 µM |
| CCOC(=O)C(=Cc1ccc(-n2cncn2)cc1)C(=O)OCC | 11.4 µM |
| O=C(N/N=C/c1ccc(O)c(O)c1)NC12CC3CC(CC(C3)C1)C2 | 3.34 µM |
| Cc1cc(N/N=C/c2ccccc2[N+](=O)[O-])nc(-n2nc(C)cc2C)n1 | 7.44 µM |
| Oc1ccc(/C=N/Nc2ccnc3cc(Cl)ccc23)cc1O | 6.62 µM |
| Cc1ccc(C(=O)/C=C/C(=O)c2ccc(C)cc2)cc1 | 8.35 µM |
| O=C(NC1CCCC1)C(c1ccc(F)cc1)N(Cc1ccc(F)cc1)C(=O)CCl (stereo not drawn) | 9.26 µM |
| Cc1nc(SCC(=O)Nc2ccc(F)cc2)c(C#N)c(C)c1CC(=O)c1ccc(Br)cc1 | > 80 µM (inactive) |
| S=C1SCN(CCN2CCOCC2)CN1Cc1ccccc1 | 10.8 µM |
| Cc1ccc(/C=C2\CCC3=C2OC(N)=C(C#N)C3c2ccc(C)cc2)cc1 (stereo not drawn) | 4.55 µM |
| CCc1ccc2nc(N(CCCN(C)C)C(=O)c3ccc(S(=O)(=O)N(C)C4CCCCC4)cc3)sc2c1 | 10.6 µM |

Further lines, results first:

| EC50 | Compound |
| --- | --- |
| inactive | Cc1ccc(N2CCN(c3ccc(NCc4nc5ccccc5n4C)cc3)CC2)cc1 |
| 3.71 µM | C/C(=N\NC(=O)c1cc2ccccc2cc1O)c1ccccn1 |
| 10.1 µM | C/C(=N\NC(=O)C(C)Oc1ccc([N+](=O)[O-])cc1)c1ccccn1 (stereo not drawn) |
| > 80 µM (inactive) | COc1ccc(N2CCN(Cc3cc(=O)oc4cc(-c5ccccc5)c(O)cc34)CC2)cc1 |
| 5.18 µM | COc1ccc(-c2cc(-c3ccccc3)c(C#N)c(S(C)(=O)=O)n2)cc1 |
| 12.5 µM | O=[N+]([O-])c1ccc2nc(Cl)nc(-c3ccccc3)c2c1 |
| 7.25 µM | CCCCOc1ccc(N2C(=O)CC(N(O)c3ccccc3)C2=O)cc1 (stereo not drawn) |
| 10.4 µM | O=C(NCc1cccnc1)/C(=C/c1ccc(-c2cccc(Cl)c2)o1)S(=O)(=O)c1ccccc1 |
| > 80 µM (inactive) | COc1cc(/C=C/C(=O)N2C(=O)c3cccc(N)c3C2=O)cc(OC)c1OC |
| 18 µM | CCOC(=O)c1c(C)oc2c1c(C(c1ccccc1)N1CCOCC1)c(O)c1ccccc12 (stereo not drawn) |
| 5.05 µM | COc1ccc(O)c(/C=N/Nc2nc(Nc3ccccc3)nc(-n3nc(C)cc3C)n2)c1 |
| > 80 µM (inactive) | Cc1ccccc1CS(=O)(=O)c1ncc(Cl)c(C(=O)Nc2ccc(F)cc2)n1 |
| 6.67 µM | O=C(NCc1cccnc1)/C(=C\c1ccc(-c2ccc(Br)cc2)o1)S(=O)(=O)c1ccccc1 |
| 13.8 µM | COc1cccc2sc(N3CCN(c4nc5ccccc5s4)CC3)nc12 |
| 7.28 µM | CC(=O)c1cccc(NC(=O)CSc2ncc(C(=O)Nc3ccccc3)c(=O)n2C)c1 |
| 10.2 µM | COc1cccc(N=Nc2ccc3cccnc3c2O)c1 |
| > 80 µM (inactive) | CCOC(=O)c1ccc(N=C2C(=S)N(c3ccc(C(=O)OCC)cc3)C(=N)N2/N=C/c2ccccc2)cc1 |
| 13.6 µM | CSc1nnc(NC(=O)c2nc(S(=O)(=O)Cc3ccc(C)cc3)ncc2Cl)s1 |
| inactive | CCOc1cc(/C=C2/C(=N)N3C=CSC3=NC2=O)ccc1OCCCOc1ccccc1C |
| 2.75 µM | COc1ccc(/C=C2\CN(Cc3ccccc3)C/C(=C\c3ccc(OC)c(O)c3)C2=O)cc1O |
| 12.4 µM | COc1ccc(CC2=CC(=O)c3ccccc3C2=O)cc1 |
| 8.18 µM | OCCNc1nc(Nc2ccc(Br)cc2)nc2ccccc12 |
| 18.4 µM | COc1ccc(N=C2S/C(=C\c3ccc(N4CCOCC4)o3)C(=O)N2CCc2c[nH]c3ccccc23)cc1 |
| 8.69 µM | COc1cccc(N=Cc2c(O)c3ccccc3oc2=O)c1 |
| > 80 µM (inactive) | O=C(NCc1ccccc1Cl)c1cccc2c1C(=O)c1ccc(-c3ccc(OC(F)(F)F)cc3)cc1S2(=O)=O |
| 13.5 µM | COc1ccc(C2=CC(=O)N(Nc3ccccc3)C2=O)cc1 |
